# From patent US11149300B1, “Methods of treating gastrointestinal malignancies” (Cedars-Sinai Medical Center, priority 2018, dated 2021)
# Where a name gives a salt, the structure may show the parent alone. Read-outs that look alike come from different tables or passages of the source.
# Legend:
# [1] = system: pancreatic cancer; conditions: in vivo; cited from earlier work
# [2] = system: Breast carcinoma (human MX-1); conditions: agent combined with veliparib; cited from earlier work
# [3] = system: metastatic triple negative breast cancer; conditions: cited from earlier work
# [4] = system: B Cell lymphoma (human DOHH2); conditions: agent combined with veliparib; cited from earlier work
# [5] = repeated dose toxicity, sole agent; type: in vivo, rats; conditions: no adverse effects, highest dose tested
# [6] = repeated dose toxicity in conjunction with cisplatin; type: in vivo, rats
# [7] = cited from earlier work
# [8] = highest dose tested; cited from earlier work
# [9] = cited from earlier work; remark: listed apart in the source
# [10] = in vitro; cited from earlier work
# [11] = repeated dose (2-week) toxicology study; conditions: 30 mg base/kg/day
# [12] = system: locally advanced and metastatic pancreatic carcinomas; conditions: cited from earlier work
# [13] = system: pancreatic cancer; conditions: cited from earlier work
# [14] = system: locally advanced and metastatic pancreatic adenocarcinoma; conditions: cited from earlier work
# [15] = system: unresectable pancreatic cancer; conditions: cited from earlier work
# [16] = system: pancreatic cancer; conditions: full-dose gemcitabine with 36 Gy; cited from earlier work
# [17] = human, in vivo; cited from earlier work
# [18] = system: C-41 cells; conditions: cited from earlier work
# [19] = cited from earlier work; remark: listed apart in the source
# [20] = system: PARP; conditions: cited from earlier work
# [21] = monkey; cited from earlier work
# [22] = dog, 5 μM; cited from earlier work
# [23] = 8-hour incubation; cited from earlier work
# [24] = molecular target: human 5-HT7 (Homo sapiens, UniProt P34969); conditions: 10 μM (2.4 μg/mL); cited from earlier work
# human 5-HT7, sequence (P34969 whole entry): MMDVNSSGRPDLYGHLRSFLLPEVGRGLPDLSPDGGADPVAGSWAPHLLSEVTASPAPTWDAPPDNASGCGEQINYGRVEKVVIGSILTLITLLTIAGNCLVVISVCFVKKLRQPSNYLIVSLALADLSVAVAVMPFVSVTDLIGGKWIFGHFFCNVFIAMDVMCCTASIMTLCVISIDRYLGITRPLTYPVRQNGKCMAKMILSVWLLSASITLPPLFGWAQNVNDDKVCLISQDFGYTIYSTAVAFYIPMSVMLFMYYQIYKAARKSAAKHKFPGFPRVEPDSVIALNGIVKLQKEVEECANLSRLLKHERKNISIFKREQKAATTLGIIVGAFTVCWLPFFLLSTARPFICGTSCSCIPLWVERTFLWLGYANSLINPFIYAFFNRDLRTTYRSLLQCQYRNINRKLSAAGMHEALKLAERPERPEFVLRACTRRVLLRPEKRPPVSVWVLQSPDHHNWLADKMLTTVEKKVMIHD
# [25] = mice, cited from earlier work
# [26] = cited from earlier work; remark: listed apart in the source
# [27] = system: PAR in PBMCs and tumor; conditions: cited from earlier work; for treatment related adverse events: single dose 10 or 25 mg
# [28] = anesthetized dog cardiovascular model
# [29] = system: locally advanced or borderline resectable pancreatic cancer; assay: Phase I VelGemRad trial, PFS and OS, overall and by DDR biomarker
# Experimental: RNA-seq libraries were prepared from pre-treatment tumor biopsies. The database for annotation, visualization, and integrated discovery (DAVID) v6.7 was used to interpret the differential expression genes data. Cox regression model was used to identify DNA damage related pathways associated with patient survivals.
# The secondary objective was to measure the clinical activity of the treatment (progression free survival—PFS, overall survival—OS) and evaluate patient tumor or blood pre-, during and post treatment for DNA damage repair alterations, PAR levels and immune mediators. Between 2013 and 2016, 34 patients enrolled at a single institution. Four were removed due to non-compliance. The median age was 67 and 24 were LAPC and 6 were borderline resectable prostate cancer (BR).
# Treatment naïve patients with LA or borderline resectable pancreatic cancer (BR) were treated with weekly G (1000 mg/m^2), daily RT (36 Gy/15 fractions) and V 20 mg BID daily for 3 weeks escalated per Bayesian method followed by standard chemotherapy. DAVID v6.7 was used to interpret transcriptomic differential expression of genes. Cox regression model was used to identify DDR pathways associated with survival. […] The log-rank test was used to evaluate differences in PFS and OS.
# [30] = in vivo; cited from earlier work
# [31] = system: Melanoma (murine B16F10); conditions: agent combined with veliparib; cited from earlier work
# [32] = all patients, with gemcitabine and IMRT
# [33] = biomarker positive (+), DNA repair defects by gene expression
structure (smiles),measurement,setting,value
O=c1[nH]cc(F)c(=O)[nH]1 [5 FU],median survival,[1],4.41 months
same,patients with clinical benefit,[1],5%
O=P1(N(CCCl)CCCl)NCCCO1 (stereo not shown) [Cyclophosphamide],veliparib mediated potentiation of cytotoxic agent,[2],Yes
NC(=O)c1ccc(I)c([N+](=O)[O-])c1 [BSI-201],frequency and nature of adverse events,[3]; in vivo,did not differ between arms
same,clinical outcome versus chemotherapy alone,[3]; with gemcitabine 1000 mg/m^2 and carboplatin AUC=2,"improved CBR, median PFS, and median OS"
N.N.[Cl][Pt][Cl] [Cisplatin],veliparib mediated potentiation of cytotoxic agent,[2],Yes
same,veliparib mediated potentiation of cytotoxic agent,[4],No
C[C@]1(c2nc3c(C(N)=O)cccc3[nH]2)CCCN1 [veliparib dihydrochloride],Cmax as multiple of estimated therapeutic peak plasma concentration,[5],greater than 19 fold
same,Cmax as multiple of estimated therapeutic peak plasma concentration,[6]; highest dose with cisplatin,22 fold
same,Cmax as multiple of estimated therapeutic value,[6]; no clinically meaningful exacerbation,up to 8 fold
same,toxic findings,[7]; 30 mg base/kg/day,"emesis, body weight losses related to anorexia, and convulsions"
same,"adverse effects, sole agent",[8],did not result in adverse effects
same,exacerbation of cisplatin-associated toxicity,[9]; highest dose with cisplatin,Exacerbation of cisplatin-associated toxicity
same,exacerbation of cisplatin-associated toxicity,[9]; lower doses with cisplatin,no clinically meaningful exacerbations
same,clastogenicity,[10],negative
same,mutagenicity,[10],negative
same,Cmax as multiple of estimated therapeutic peak plasma concentration,[11],26 fold
"Nc1ccn([C@@H]2O[C@H](CO)[C@@H](O)C2(F)F)c(=O)n1 [gemcitabine, 2′,2′-Difluoro-2′-deoxycytidine]",median survival,[1],5.56 months
same,patients with clinical benefit,[1],~25%
same,response rates,[12]; chemo naïve patients,up to 42%
same,response rates,[12]; heavily pretreated patients,11-22%
same,objective responses,"[13]; combined arm, gemcitabine 600 mg/m^2 with 50.4 Gy",8.8%
same,Grade IV toxicity,[13]; combined group,41.2%
same,objective responses,[13]; gemcitabine alone arm (1000 mg/m^2),2.7%
same,Grade IV toxicity,[13]; gemcitabine alone,5.7%
same,intracellular gemcitabine triphosphate concentration,[14]; FDR arm versus standard,two-fold increase
same,median survival,"[14]; FDR arm, 1,500 mg/m^2 over 150 minutes",8.0 months
same,hematologic toxicity,[14]; FDR infusion arm,increased but acceptable hematologic toxicity
same,median survival,"[14]; standard arm, 2,200 mg/m^2 over 30 minutes",5.0 months
same,patients with DLT,[15]; FDR-G with IMRT 50-60 Gy,6 patients
same,median overall survival,[15]; in vivo,23.1 months
same,median progression-free survival,[15]; in vivo,7.2 months
same,response rate,[15]; in vivo,52.4%
same,disease control rates,[16],84.6%
same,response rates,[16],5.1%
same,tolerability,[16],well-tolerated
same,time to steady-state plasma levels after starting infusion,[17],≤ 15 min
C[C@]1(c2nc3c(C(N)=O)cccc3[nH]2)CCCN1 [veliparib],γ-H2AX foci (DNA damage),[18]; added to 1 mM temozolomide,further potentiated
same,DNA damage caused by irinotecan,[18]; with irinotecan,potentiates
same,potentiation of cisplatin,[19]; long-term clonogenic assay,potentiation was observed
same,potentiation of cisplatin,[19]; short-term cytotoxicity assay,not in the short-term cytotoxicity assay
same,inhibition of PARP activity in tumors,"[20]; 12.5, 5 and 1 mg/kg/day, vehicle and temozolomide treated groups",significant
same,PAR formation in tumors,"[20]; veliparib alone, two hours after administration",inhibited PAR formation in B16F10 tumors in a dose-dependent manner
same,oral bioavailability,[21],56.1%
same,"protein binding in plasma, % bound",[22],42%
same,stability in plasma,[23],very stable
same,displacement of control-specific binding,[24],84%
same,outcome after electrically-induced tonic convulsions,[25]; 100 mg/kg PO,increased incidence of death
same,outcome in audiogenic seizure model,[25],Death was also noted
same,seizures,"[7]; 60 mg/kg/day, 30 mg/kg twice daily or 30 mg/kg every day",seizures were also noted
same,non-toxic dose in the most sensitive mammalian species,[7]; beagle dogs,300 mg/m^2
same,plasma concentrations in dogs with seizures,"[7]; dog, in vivo",> 5400 ng/mL
same,change in mean arterial pressure versus baseline,[26]; 12.96 μg/mL,−16±5%
same,change in systemic vascular resistance versus baseline,[26]; 12.96 μg/mL,−10±7%
same,QTcV prolongation above baseline,[26]; 12.96±0.92 μg/mL,15±3%
same,mean plasma concentration with modest haemodynamic effects,"[26]; dog, in vivo",12960 ± 920 ng/mL
same,mean plasma concentration without haemodynamic change,"[26]; dog, in vivo",4450 ± 130 ng/mL
same,"mean arterial pressure, heart rate, dP/dtmax, pulmonary arterial pressure, vascular resistance",[26]; mean plasma concentrations up to 4.45 μg/mL,no physiologically relevant changes
same,"delayed repolarization (QTc intervals), trend",[26]; plasma concentrations 21-fold predicted Cmax,7%
same,patients exceeding target plasma Cmax of 210 nM,[27]; 10 mg dose level,2 of 3 patients
same,patients exceeding target plasma Cmax of 210 nM for at least 4 hours,[27]; 25 mg dose level,all three patients
same,reduction of PAR levels from baseline,"[27]; single 25 mg dose, PBMCs and tumor samples",80-99%
same,treatment related adverse events,[27],No treatment related adverse events
same,treatment related adverse events,[27]; listed as ABT-888,no treatment related adverse events
same,multiple of predicted clinical Cmax,[28]; at 4.45 μg/mL,21 fold
same,multiple of predicted clinical Cmax,[28]; at 12.96 μg/mL,62 fold
same,multiple of predicted clinical Cmax at which QT prolongation was seen,"[28]; dog, in vivo",21 fold
same,median OS,[29]; FA biomarker (+),18 months
same,median OS,[29]; FA biomarker (−),12 months
same,median OS,[29]; MMR biomarker (+),18 months
same,median OS,[29]; MMR biomarker (−),12 months
same,median OS,[29]; NER biomarker (+),22 months
same,median OS,[29]; NER biomarker (−),12 months
same,median overall survival (OS),[29]; [32],14.6 months
same,median progression free survival (PFS),[29]; [32],9.8 months
same,median OS,[29]; biomarker negative (−),12 mos
same,median PFS,[29]; biomarker negative (−),8 mos
same,median OS,[29]; [33],22 mos
same,median PFS,[29]; [33],17 mos
CC1(c2nc3c(C(N)=O)cccc3[nH]2)CCC(=O)N1 (stereo not shown) [A-925088],route of clearance,[30],cleared primarily in the urine
N.N.O=C([O-])C1(C(=O)[O-])CCC1.[Pt+2] [Carboplatin],veliparib mediated potentiation of cytotoxic agent,[2],Yes
CCc1c2c(nc3ccc(OC(=O)N4CCC(N5CCCCC5)CC4)cc13)-c1cc3c(c(=O)n1C2)COC(=O)[C@]3(O)CC [Irinotecan],veliparib mediated potentiation of cytotoxic agent,[31],Yes
